Assay results: ChEMBL document CHEMBL5113530, “Butyrylation Meets Adipogenesis-Probed by a p300-Catalyzed Acylation-Specific Small Molecule Inhibitor: Implication in Anti-obesity Therapy” (J Med Chem, 2022)
Calls of active or inactive are those of the source. No cut-off for these calls is given here.

Columns and labels:
[1] = Toxicity in female Sprague-Dawley rat assessed as effect on body weight at 500 mg/kg, po administered as single dose measured on day 7 (Rvb =169.81 +/- 6.57 g); assay type: organism-based; conditions: in vivo, 168 h, time 7 day
[2] = tested on: 3T3-L1; assay: Anti-adipogenic activity against mouse 3T3-L1 cells at 25 uM incubated for 8 days by Oil Red O staining based spectrophotometric analysis; assay type: functional, cell-based; conditions: time 8.0 day
[3] = Stability of compound in mouse 3T3-L1 cells measured after 6 days by LC-ESI-MS analysis; assay type: ADME, cell-based; conditions: 3t3-l1, 144 h, time 6 day
[4] = Toxicity in female Sprague-Dawley rat assessed as average food intake at 1000 mg/kg, po administered as single dose measured on day 14 (Rvb =15.95 g/day); assay type: organism-based; conditions: in vivo, 336 h, time 14 day
[5] = Toxicity in male Sprague-Dawley rat assessed as effect on body weight at 1000 mg/kg, po administered as single dose measured on day 1 (reference value: 174.75 +/- 7.61 g); assay type: organism-based; conditions: in vivo, 24 h, time 1 day
[6] = tested on: Mus musculus; assay: Anti-obesity activity in db/db mouse assessed as reduction in H4K5 butyrylation level in epididymal fat pad at 50 mg/kg, po qd administered for 30 days by Immunoblotting analysis; assay type: functional, organism-based; conditions: time 30.0 day
[7] = Mutagenicity in Salmonella typhimurium TA98 assessed as number of revertants measured per plate at 10 to 1000 incubated for 48 hrs in presence of rat liver S9 fraction by plate incorporation assay; assay type: toxicity; conditions: salmonella enterica subsp. enterica serovar typhimurium, s9, 48 h, dose 10-1000 µg
[8] = Toxicity in male Sprague-Dawley rat assessed as average water intake measured per day at 250 mg/kg, po administered as single dose measured on day 14 (Rvb =34 ml/day); assay type: organism-based; conditions: in vivo, 336 h, time 14 day
[9] = Mutagenicity in Salmonella typhimurium TA97a assessed as number of revertants measured per plate at 10 to 1000 incubated for 48 hrs in absence of rat liver S9 fraction by plate incorporation assay; assay type: toxicity; conditions: salmonella enterica subsp. enterica serovar typhimurium, s9, 48 h, dose 10-1000 µg
[10] = target: Histone acetyltransferase p300 (Homo sapiens) (UniProt Q09472); assay: Inhibition of wild-type His-tagged EP300 catalytic domain catalyzed butyrylation (unknown origin) expressed in Escherichia coli BL21 (DE3) using Histone H3 as substrate at 25 uM preincubated with compound for 10 mins followed by butyryl-CoA addition and measured after 10 mins by Western blot analysis; conditions: time 20.0 min
Sequence of Histone acetyltransferase p300 (Homo sapiens) (Q09472 whole entry, the tested form may be a part): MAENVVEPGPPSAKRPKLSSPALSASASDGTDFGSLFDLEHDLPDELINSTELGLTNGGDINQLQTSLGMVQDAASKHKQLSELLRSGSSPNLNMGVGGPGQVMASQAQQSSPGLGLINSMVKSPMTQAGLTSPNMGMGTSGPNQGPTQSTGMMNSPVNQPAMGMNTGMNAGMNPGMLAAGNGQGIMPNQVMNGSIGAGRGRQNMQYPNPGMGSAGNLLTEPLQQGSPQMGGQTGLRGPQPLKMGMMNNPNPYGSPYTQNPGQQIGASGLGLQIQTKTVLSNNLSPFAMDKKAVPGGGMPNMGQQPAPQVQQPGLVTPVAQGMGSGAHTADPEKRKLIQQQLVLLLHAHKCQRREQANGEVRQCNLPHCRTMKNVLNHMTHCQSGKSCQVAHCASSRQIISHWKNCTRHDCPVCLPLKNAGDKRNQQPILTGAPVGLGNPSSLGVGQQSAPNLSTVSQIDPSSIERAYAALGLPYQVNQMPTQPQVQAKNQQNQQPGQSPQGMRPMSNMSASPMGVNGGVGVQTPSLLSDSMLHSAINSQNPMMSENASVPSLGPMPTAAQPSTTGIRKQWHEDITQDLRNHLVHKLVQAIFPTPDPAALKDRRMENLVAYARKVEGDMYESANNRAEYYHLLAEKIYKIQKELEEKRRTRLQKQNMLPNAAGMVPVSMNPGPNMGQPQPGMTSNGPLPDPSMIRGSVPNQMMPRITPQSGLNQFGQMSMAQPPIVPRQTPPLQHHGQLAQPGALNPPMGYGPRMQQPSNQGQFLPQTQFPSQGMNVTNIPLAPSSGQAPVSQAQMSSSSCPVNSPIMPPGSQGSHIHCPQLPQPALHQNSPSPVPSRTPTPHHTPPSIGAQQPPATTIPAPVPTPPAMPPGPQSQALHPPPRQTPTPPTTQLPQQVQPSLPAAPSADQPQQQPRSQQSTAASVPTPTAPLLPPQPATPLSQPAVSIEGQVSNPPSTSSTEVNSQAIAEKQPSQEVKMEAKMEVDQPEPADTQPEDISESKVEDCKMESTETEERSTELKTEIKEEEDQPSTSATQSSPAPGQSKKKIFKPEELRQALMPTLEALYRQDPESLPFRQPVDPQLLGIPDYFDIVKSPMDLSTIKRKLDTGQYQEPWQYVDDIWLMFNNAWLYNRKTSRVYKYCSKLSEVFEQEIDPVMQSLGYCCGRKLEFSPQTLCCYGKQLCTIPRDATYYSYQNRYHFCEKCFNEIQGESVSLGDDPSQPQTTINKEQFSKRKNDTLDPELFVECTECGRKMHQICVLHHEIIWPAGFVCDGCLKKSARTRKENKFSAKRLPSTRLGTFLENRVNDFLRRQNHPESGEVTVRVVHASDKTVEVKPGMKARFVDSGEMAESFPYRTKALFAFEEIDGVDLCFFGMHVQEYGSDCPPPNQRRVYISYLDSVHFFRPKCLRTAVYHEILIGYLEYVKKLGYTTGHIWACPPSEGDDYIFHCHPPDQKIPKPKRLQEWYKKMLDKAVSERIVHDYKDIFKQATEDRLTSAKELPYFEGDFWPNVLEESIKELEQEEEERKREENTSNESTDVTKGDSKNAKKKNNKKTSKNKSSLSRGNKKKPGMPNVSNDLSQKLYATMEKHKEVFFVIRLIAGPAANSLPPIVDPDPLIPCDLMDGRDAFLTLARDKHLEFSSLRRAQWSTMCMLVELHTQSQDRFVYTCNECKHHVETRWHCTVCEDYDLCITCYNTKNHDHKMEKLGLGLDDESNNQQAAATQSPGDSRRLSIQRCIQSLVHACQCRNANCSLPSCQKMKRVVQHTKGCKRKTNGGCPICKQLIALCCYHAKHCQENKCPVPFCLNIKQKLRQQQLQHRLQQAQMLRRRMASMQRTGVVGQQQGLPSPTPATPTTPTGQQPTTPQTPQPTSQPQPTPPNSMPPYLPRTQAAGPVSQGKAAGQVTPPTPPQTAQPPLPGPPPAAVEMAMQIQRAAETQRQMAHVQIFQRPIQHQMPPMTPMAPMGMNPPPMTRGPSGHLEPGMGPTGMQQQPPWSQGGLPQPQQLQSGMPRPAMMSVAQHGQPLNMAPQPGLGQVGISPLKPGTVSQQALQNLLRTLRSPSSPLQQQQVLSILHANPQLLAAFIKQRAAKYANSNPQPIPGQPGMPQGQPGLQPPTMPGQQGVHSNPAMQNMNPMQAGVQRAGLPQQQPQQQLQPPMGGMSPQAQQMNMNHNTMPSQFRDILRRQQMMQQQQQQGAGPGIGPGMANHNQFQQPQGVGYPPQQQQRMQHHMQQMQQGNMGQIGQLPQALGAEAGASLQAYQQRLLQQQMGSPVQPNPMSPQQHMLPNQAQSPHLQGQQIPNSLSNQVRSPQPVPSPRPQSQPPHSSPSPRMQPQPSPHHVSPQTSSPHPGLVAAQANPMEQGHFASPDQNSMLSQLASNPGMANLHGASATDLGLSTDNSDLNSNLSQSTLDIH

[11] = Toxicity in male Sprague-Dawley rat assessed as average food intake at 250 mg/kg, po administered as single dose measured on day 1 (Rvb =20.38 g/day); assay type: organism-based; conditions: in vivo, 24 h, time 1 day
[12] = Mutagenicity in Salmonella typhimurium TA98 assessed as number of revertants measured per plate at 10 to 1000 incubated for 48 hrs in absence of rat liver S9 fraction by plate incorporation assay; assay type: toxicity; conditions: salmonella enterica subsp. enterica serovar typhimurium, s9, 48 h, dose 10-1000 µg
[13] = tested on: Mus musculus; assay: Anti-obesity activity in db/db mouse assessed as inhibition of Pprag-gene expression at 50 mg/kg, po qd administered for 30 days by qRT-PCR analysis; assay type: functional, organism-based; conditions: time 30.0 day
[14] = tested on: Mus musculus; assay: Anti-obesity activity in db/db mouse assessed as daily food consumption […] at 50 mg/kg, po qd administered for 30 days and measured every week (reference value: 37.8 +/- 1.64 g); assay type: functional; conditions: time 30 day
[15] = Toxicity in male Sprague-Dawley rat assessed as average water intake measured per day at 1000 mg/kg, po administered as single dose measured on day 7 (Rvb =30 ml/day); assay type: organism-based; conditions: in vivo, 168 h, time 7 day
[16] = Toxicity in female Sprague-Dawley rat assessed as average water intake measured per day at 500 mg/kg, po administered as single dose measured on day 1 (Rvb =25 ml/day); assay type: organism-based; conditions: in vivo, 24 h, time 1 day
[17] = Toxicity in male Sprague-Dawley rat assessed as effect on body weight at 250 mg/kg, po administered as single dose measured on day 1 (reference value: 174.75 +/- 7.61 g); assay type: organism-based; conditions: in vivo, 24 h, time 1 day
[18] = Toxicity in female Sprague-Dawley rat assessed as average food intake at 500 mg/kg, po administered as single dose measured on day 1 (Rvb =17.84 g/day); assay type: organism-based; conditions: in vivo, 24 h, time 1 day
[19] = Toxicity in female Sprague-Dawley rat assessed as effect on body weight at 500 mg/kg, po administered as single dose measured on day 14 (Rvb =171.5 +/- 6.65 g); assay type: organism-based; conditions: in vivo, 336 h, time 14 day
[20] = tested on: Mus musculus; assay: Anti-obesity activity in db/db mouse assessed as reduction in adipocyte hypertrophy at 50 mg/kg, po qd administered for 30 days by hematoxylin and eosin staining based assay; assay type: functional, organism-based; conditions: time 30.0 day
[21] = tested on: Mus musculus; assay: Anti-obesity activity in C57BL6/J mouse model of high fat diet-induced obesity assessed as reduction in epididymal fat pad weight at 50 mg/kg; assay type: functional, organism-based
[22] = tested on: 3T3-L1; assay: Anti-adipogenic activity against mouse 3T3-L1 cells assessed as downregulation of ADIPOQ mRNA expression at 25 uM measured after 7 days by qRT-PCR analysis; assay type: functional, cell-based; conditions: time 7.0 day
[23] = Toxicity in male Sprague-Dawley rat assessed as effect on body weight at 500 mg/kg, po administered as single dose measured on day 7 (reference value: 217.38 +/- 11.38 g); assay type: organism-based; conditions: in vivo, 168 h, time 7 day
[24] = Toxicity in female Sprague-Dawley rat assessed as average food intake at 250 mg/kg, po administered as single dose measured on day 1 (Rvb =17.84 g/day); assay type: organism-based; conditions: in vivo, 24 h, time 1 day
[25] = tested on: 3T3-L1; assay: Anti-adipogenic activity against mouse 3T3-L1 cells assessed as downregulation of SLC2A4 mRNA expression at 25 uM measured after 7 days by qRT-PCR analysis; assay type: functional, cell-based; conditions: time 7.0 day
[26] = Toxicity in female Sprague-Dawley rat assessed as effect on body weight at 1000 mg/kg, po administered as single dose measured on day 7 (Rvb =169.81 +/- 6.57 g); assay type: organism-based; conditions: in vivo, 168 h, time 7 day
[27] = Mutagenicity in Salmonella typhimurium TA100 assessed as number of revertants measured per plate at 10 to 1000 incubated for 48 hrs in presence of rat liver S9 fraction by plate incorporation assay; assay type: toxicity; conditions: salmonella enterica subsp. enterica serovar typhimurium, s9, 48 h, dose 10-1000 µg
[28] = Toxicity in female Sprague-Dawley rat assessed as average food intake at 500 mg/kg, po administered as single dose measured on day 7 (Rvb =15.65 g/day); assay type: organism-based; conditions: in vivo, 168 h, time 7 day
[29] = Toxicity in male Sprague-Dawley rat assessed as average water intake measured per day at 500 mg/kg, po administered as single dose measured on day 1 (Rvb =32 ml/day); assay type: organism-based; conditions: in vivo, 24 h, time 1 day
[30] = Mutagenicity in Salmonella typhimurium TA100 assessed as number of revertants measured per plate at 10 to 1000 incubated for 48 hrs in absence of rat liver S9 fraction by plate incorporation assay; assay type: toxicity; conditions: salmonella enterica subsp. enterica serovar typhimurium, s9, 48 h, dose 10-1000 µg
[31] = tested on: Mus musculus; assay: Anti-obesity activity in db/db mouse assessed as reduction in hepatic steatosis at 50 mg/kg, po qd administered for 30 days by hematoxylin and eosin staining based assay; assay type: functional, organism-based; conditions: time 30.0 day
[32] = Toxicity in female Sprague-Dawley rat assessed as effect on body weight at 250 mg/kg, po administered as single dose measured on day 14 (Rvb =171.5 +/- 6.65 g); assay type: organism-based; conditions: in vivo, 336 h, time 14 day
[33] = Toxicity in female Sprague-Dawley rat assessed as effect on body weight at 1000 mg/kg, po administered as single dose measured on day 1 (Rvb =152.21 +/- 6.58 g); assay type: organism-based; conditions: in vivo, 24 h, time 1 day

Question: Which Activity [1] does the source give for COc1ccc(C(=O)C2=C3OC(C)(C)[C@@H](CC=C(C)C)C[C@@]34C[C@@H](CC=C(C)C)C(C)(C)[C@](CC=C(C)C)(C2=O)C4=O)cc1OC here?
Answer: The Activity was 176.55 g.

Question: What about the Activity [2] of the same molecule?
Answer: The Activity was “Active”.

Question: And the Stability [3]?
Answer: Its Stability is “Stable”.

Question: And the Activity [4]?
Answer: The Activity was 16.97 g/day.

Question: And the Activity [5]?
Answer: Its Activity is 176.24 g.

Question: What about the Activity [6] of the same molecule?
Answer: Its Activity is “Active”.

Question: What about the Activity [7] of the same molecule?
Answer: Its Activity is “Non-Toxic”.

Question: And the Activity [8]?
Answer: Its Activity is 34 mL.

Question: What about the Activity [9] of the same molecule?
Answer: Its Activity is “Non-Toxic”.

Question: What about the inhibition [10] of the same molecule?
Answer: The inhibition was “Active”.

Question: And the Activity [11]?
Answer: Its Activity is 20.03 g/day.

Question: And the Activity [12]?
Answer: Its Activity is “Non-Toxic”.

Question: And the Activity [13]?
Answer: Its Activity is “Active”.

Question: And the Activity [14]?
Answer: Its Activity is 34 g.

Question: What about the Activity [15] of the same molecule?
Answer: The Activity was 31 mL.

Question: And the Activity [16]?
Answer: The Activity was 25 mL.

Question: And the Activity [17]?
Answer: The Activity was 171.94 g.

Question: And the Activity [18]?
Answer: Its Activity is 18.22 g/day.

Question: And the Activity [19]?
Answer: Its Activity is 175.8 g.

Question: And the Activity [20]?
Answer: The Activity was “Active”.

Question: And the Activity [21]?
Answer: The Activity was “Active”.

Question: What about the Activity [22] of the same molecule?
Answer: The Activity was “Active”.

Question: And the Activity [23]?
Answer: The Activity was 229.75 g.

Question: And the Activity [24]?
Answer: The Activity was 20 g/day.

Question: And the Activity [25]?
Answer: The Activity was “Active”.

Question: What about the Activity [26] of the same molecule?
Answer: The Activity was 178.58 g.

Question: And the Activity [27]?
Answer: The Activity was “Non-Toxic”.

Question: What about the Activity [28] of the same molecule?
Answer: Its Activity is 18.13 g/day.

Question: And the Activity [29]?
Answer: The Activity was 36 mL.

Question: What about the Activity [30] of the same molecule?
Answer: Its Activity is “Non-Toxic”.

Question: What about the Activity [31] of the same molecule?
Answer: Its Activity is “Active”.

Question: What about the Activity [32] of the same molecule?
Answer: Its Activity is 176.35 g.

Question: And the Activity [33]?
Answer: The Activity was 153.81 g.
